How the values were obtained:
Test in all cases: relative viability (nuclei count vs DMSO), 5 days (fraction); higher = more cells survive
Navitoclax = compound: CC1(C)CCC(c2ccc(Cl)cc2)=C(CN2CCN(c3ccc(C(=O)NS(=O)(=O)c4ccc(N[C@H](CCN5CCOCC5)CSc5ccccc5)c(S(=O)(=O)C(F)(F)F)c4)cc3)CC2)C1 [Navitoclax]
How it was run: (§1)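 MetaXpress counted nuclei in 4× images of lung cancer cell lines that had been fixed, permeabilised and Hoechst-stained in one step. Before that, cells in 1536-well plates were kept overnight at 37 °C, pinned with five √10-spaced library-drug doses on vehicle-anchored plates, and cultured 5 days without medium change. Viability takes treated-well nuclei over vehicle-well nuclei and uses the median across plates. Plates were accepted only at control CV below 25% and at least one doubling.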

[1] = compound: O=C(O)c1ccc(-c2c[nH]c3ncc(-c4ccccc4)cc23)cc1C1CCCC1
How it was run: as §1

XAV939 = compound: Oc1nc(-c2ccc(C(F)(F)F)cc2)nc2c1CSCC2 [XAV939]
How it was run: as §1

C-75 = compound: CCCCCCCC[C@H]1[C@@H](C(=C)C(=O)O1)C(=O)O [C-75]
How it was run: as §1

AZD7762 = compound: NC(=O)Nc1cc(-c2cccc(F)c2)sc1C(=O)N[C@H]1CCCNC1 [AZD7762]
How it was run: as §1

Cell Line	relative viability (Navitoclax; 0.005 µM)	relative viability (Navitoclax; 0.01581 µM)	relative viability (Navitoclax; 0.05 µM)	relative viability (Navitoclax; 0.1581 µM)	relative viability (Navitoclax; 0.5 µM)	relative viability (Navitoclax; 0.5 µM, anchor plate)	relative viability ([1]; 0.04 µM)	relative viability ([1]; 0.1265 µM)	relative viability ([1]; 0.4 µM)	relative viability ([1]; 1.265 µM)	relative viability (XAV939; 0.08 µM)	relative viability (XAV939; 0.253 µM)	relative viability (XAV939; 0.8 µM)	relative viability (XAV939; 2.53 µM)	relative viability (C-75; 0.08 µM)	relative viability (C-75; 0.253 µM)	relative viability (C-75; 0.8 µM)	relative viability (C-75; 2.53 µM)	relative viability (C-75; 8 µM)	relative viability (AZD7762; 0.01 µM)	relative viability (AZD7762; 0.03162 µM)	relative viability (AZD7762; 0.1 µM)	relative viability (AZD7762; 0.2 µM, anchor plate)	relative viability (AZD7762; 0.3162 µM)	relative viability (AZD7762; 1 µM)
201T	1.06	1.14	0.974	0.957	1.04	1.19	0.997	1.05	0.948	1	0.96	0.808	0.762	0.846	1.02	1.16	0.987	0.917	0.993	0.937	1.01	1.02	0.596	0.92	0.878
A549	0.974	1.05	0.999	0.956	0.935	1.23	0.957	1.03	0.99	0.818	1.05	0.798	0.911	0.811	0.944	1.14	0.874	0.83	0.913	1	0.982	0.994		0.974	0.507
A-427	1.02	0.977	0.959	1	1.03	0.968	1.03	1.11	0.998	0.888	1.12	0.936	0.933	0.897	1.05	0.938	0.948	0.847	0.82	0.988	1.02	1.03	0.784	0.852	0.419
ABC-1	0.833	0.977	0.846	0.984	0.976		0.801	1.16	0.861	0.936	0.927	0.847	0.677	0.568	0.904	0.864	0.917	0.733	0.676	0.975	0.985	0.956	0.809	0.532	0.384
BEN	0.973	1.12	0.839	0.942			0.931	1.08	1	0.935	1.01	0.869	0.897	0.835	1.11	1.02	0.898	0.756	0.817	1.05	0.963	0.958	0.743	0.907	0.873
CAL-12T	0.935	1.05	1.01	0.985	1.01	1.14	1.08	1.17	0.914	0.734	1	0.884	0.877	0.814	1.06	1.15	0.859	0.922	1.08	0.993	0.982	1.06	0.646	0.724	0.241
COR-L23	0.934	1.16	1.15	0.974	0.965	1.01	0.921	1.01	0.973	0.723	1.11	0.92	1.01	0.928	0.965	1.04	0.945	0.778	1.06	1.1	0.912	1.17		0.854	0.231
COR-L 105	0.808	1.21	0.965	0.98	0.922	0.841	1	0.951	0.945	0.88	1.03	0.857	0.78	0.6	0.939	0.876	0.877	0.755	0.801	0.949	0.918	0.822		0.613	0.502
Calu-6	0.979	1.01	1.1	0.933	0.93	0.824	0.982	1.01	0.955	0.78	1.07	0.904	0.985	0.944	1.03	1.02	0.964	0.912	0.948	1.05	0.992	0.873		0.475	0.145
ChaGo-K-1	1.03	1.01	0.727	0.961	1.04	1.09	1.05	1.01	0.896	1.02	0.978	0.894	1.03	0.973	0.93	0.98	0.931	0.799	0.966	1.01	0.969	1.06	0.873	0.905	0.841
EBC-1	0.931	1.17	0.958	1.1	0.718	0.451	1.02	1.14	0.923	0.633	1.05	0.901	0.882	0.817	1.04	1.08	0.956	0.84	0.757	1.1	0.98	0.993		0.939	0.576
EKVX	1.03	1.28	0.87	0.969	0.915	0.954	0.962	1.14	1.01	0.865	1.04	0.852	0.833	0.694	0.971	0.967	0.847		1.02	0.947	1.03	0.929	0.696	0.962	0.8
EMC-BAC-2	0.924	1.02	0.981	0.932	0.976	1.16	0.993	1.04	0.974	0.899	1.01	0.969	0.869	0.655	0.959	0.952	0.908	0.828	0.921	1.05	1.02	1.05	1.17	0.995	0.975
EPLC-272H	0.993		0.888	0.922	0.921	1.13	0.976	1.1	0.992	0.697	0.95	0.97	0.92	0.957	1.06	1.01	0.78	0.744	0.575	0.892	1.06	0.935	0.278	0.742	0.267
H3255	0.979	1.17	0.87	0.92	0.786	0.529	0.954	1.04	0.97	0.944	1.06	0.892	0.814	0.895	0.963	0.973	0.945	0.901	0.995	1.05	1.04	1.04	0.971	0.958	0.856
HARA	0.84	1.26	0.811	0.911	1.01	1.13	0.955	1.23	0.846	1.02	1.04	0.904	0.825	0.764	0.989	0.963	0.858	0.788	1.03	0.986	0.946	0.999	0.367	0.88	0.368
HCC-15	0.986	1.14	0.838	0.99	0.947	0.696	1.03	1.07	0.965	0.586	1.14	0.932	0.96	0.971	1	0.965	0.968	0.798	0.925	1.02	0.907	1.02	1.24	0.969	1.03
HCC-44	0.897	0.906	0.977	0.849	0.96	0.98	0.97	0.99	0.973	0.928	0.962	0.899	0.915	0.929	1	0.991	0.908	0.824	1.05	1.01	0.958	1.06	1	0.874	0.914
HCC-78	1.03	1.11	0.729	0.958	1.02	0.737	0.929	1.24	1.1	0.864	0.923	0.8	0.919	0.667	0.948	0.882	0.817	0.761	0.95	1.02	1.14	0.978	0.706	0.95	0.552
HCC-366	1.04	1.05	0.728	0.968	1.07	1.03	1	1.02	0.998	0.971	0.971	0.9	1	1.01	0.974	1.11	0.975	0.763	0.982	0.981	1.03	0.998	0.289	0.886	0.393
HCC-827	1.07	1.12	0.953	1.04	1.05	1.02	0.96	1.07	0.993	0.863	1.04	1.06	0.991	1.02	1.01	0.953	1.01	0.976	1.07	1.05	1.08	1.08	0.23	1.1	0.731
HOP-62	0.966	1.06	0.968	0.926	1.03	1	1.08	1.07	0.964	0.923	1.13	0.996	0.891	0.893	1.02	1.01	1.01	0.891	1.02	1.04	0.999	1.17	0.639	1.02	0.939
IA-LM	0.941	1.07	0.915	1	0.977	0.755	0.921	1.1	1.07	0.887	0.937	0.864	0.935	0.701	0.917	1.14	0.87	0.676	0.853	1.12	1.02	1.15		1.01	0.708
LC-2-ad	0.961	1.07	0.925	0.948	0.991	0.445	0.973	1.1	0.933	0.692	1.03	0.904	0.953	1	1.05	1.02	0.93	0.789	0.986	0.992	1.1	0.998	0.86	0.908	0.644
LCLC-97TM1	0.966	1.06	0.915	0.94	1.02	0.502	1.04	0.957	0.98	0.901	0.975	0.764	0.879	0.944	0.963	1.09	0.95	0.813	0.622	1.05	0.98	1.11	0.281	0.926	0.588
LCLC-103H	1.02	1.03	0.83	1.04	1.05		1.01	1.08	0.991	1.09	1.08	0.914	0.92	0.831	0.919	0.998	0.909	0.788	1.03	1.03	0.974	1.02	0.796	0.907	0.992
LK-2	1.02	1.03	1.11	0.997	1.02	0.886	1	1.06	0.872	0.944	1.06	0.877	1.01	0.755	0.911	1.25	1.02	0.841	0.706	1.05	1.12	0.955	0.467	0.938	0.776

Source: the supplement of paper PMC10307832
